The text below walks through data of article PMC9629855, “Development of ASIC1a ligand-gated ion channel drug screening assays across multiple automated patch clamp platforms” (Frontiers in Molecular Neuroscience, 2022).

“And” between values parts separate entries of the source, which are not always exact repeats. Equal values may be shown once. Read-outs that look alike come from different tables or passages of the source. Bridges are numbered along the chain shown (N, C = ends). Where no end group is shown, it is not given here.

The subject of experiment [1] is "ASIC1-like" pH-activated currents in rat dorsal root ganglion neurons. More on the design: method as in Dubé et al., 2005. As to conditions: ref Dubé et al., 2005, read-out: Literature IC50; cited from earlier work.
Experiment [2] has as its target T1, hASIC1a (Homo sapiens, UniProt P78348).
T1 sequence (P78348 1-528): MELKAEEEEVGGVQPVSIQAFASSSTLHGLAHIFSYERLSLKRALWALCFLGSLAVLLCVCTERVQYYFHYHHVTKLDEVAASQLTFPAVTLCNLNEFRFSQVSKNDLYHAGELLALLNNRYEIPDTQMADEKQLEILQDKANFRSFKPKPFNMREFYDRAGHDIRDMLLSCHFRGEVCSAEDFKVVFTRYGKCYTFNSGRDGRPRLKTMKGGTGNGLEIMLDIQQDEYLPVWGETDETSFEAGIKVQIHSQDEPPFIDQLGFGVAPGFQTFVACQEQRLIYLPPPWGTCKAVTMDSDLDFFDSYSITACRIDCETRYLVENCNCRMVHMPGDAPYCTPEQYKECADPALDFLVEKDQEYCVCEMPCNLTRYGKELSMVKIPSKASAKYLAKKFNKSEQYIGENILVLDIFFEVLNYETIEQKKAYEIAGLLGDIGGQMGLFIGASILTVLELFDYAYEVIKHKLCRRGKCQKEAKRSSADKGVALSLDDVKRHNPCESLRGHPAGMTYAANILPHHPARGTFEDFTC
The experiment is described as follows: cell-based. Also on record: host or cells: CHO (tetracycline-inducible). As to conditions: pH 6.5 agonist, QPatch 48 single hole; for IC50: 2 min pre-incubation. How it is done: (§1) CHO hASIC1a cells were cultured according to vendor instructions (B-SYS GmbH) and HEK cells using standard in-house methods. Both cell lines were harvested using optimized protocols and re-suspended in serum-free media (Gibco CHO-S-SFM from Thermo Fisher Scientific for CHO cells, and Ex-Cell 302 from Merck Sigma-Aldrich for HEK cells) to obtain a suspension of cells with smooth membranes and little debris, before transfer to the automated cell hotel consisting of a 60 ml plastic container (Sophion SB2050) and a magnetic stir bar to prevent cell clumping. An aliquot of cells is then aspirated into a 1 ml microcentrifuge tube and spun down (typically 150 g for 2.5 min) and the supernatant discarded before a user-defined volume of external solution is added by the robot and the cells re-suspended to achieve the desired final cell suspension density before application to primed QPlates. Cell capture, sealing and whole-cell access was achieved using optimized QPatch protocols before currents were recorded using a holding potential of −60 mV. […] Cells were washed three times with external pH 7.3 solution (5 μl) between applications of activating acidic solution to establish a stable ASIC1a current baseline. […] Each concentration of reference compound was applied to each cell before (i.e., during each pH 7.3 application period) and during each pH stimulus (IC50 mode). Thus, each concentration of test compound was pre-incubated with cells for at least 2 min before, and then during each acidic solution challenge, before wash-off in a neutral pH 7.3 solution that contained the next concentration of the same compound. Cells were allowed at least 2 min between applications of acidic solution to enable ASIC1a receptors to recover from desensitization.
(§2) Concentration-response xC50 curves from Patchliner and QPatch 48 experiments were calculated by plotting %inhibition (antagonists) or activation (pH) data against concentration in Prism software (GraphPad), using the variable sigmoidal dose-response function to fit the Hill equation with theoretical minimum block of 0% and maximum block of 100% and a free constant for Hill slope.
In addition, this protocol is designed to avoid tachyphylaxis associated with a more acidic pH stimulus, and it allows the development of a ligand-gated ASIC1a channel assay that can distinguish between agonists, partial agonists and antagonists. […] Compounds were tested using the cumulative concentration-response assay format shown in Figure 5A, which includes a 2 min pre-incubation period for each concentration to allow test samples to reach and equilibrate with their binding site(s) in the pore or large extracellular binding domain of ASIC1 receptor trimers. Agonist effects can also be detected during this period as membrane current data is recorded after every liquid addition. […] Mean inhibition data for each test sample is plotted against Log[compound] and fit with a concentration-response function.
On the technique in general: The patch-clamp technique gives a direct electrical read-out from membranes.

Experiment [3] concerns endogenous proton-activated currents in HEK cells. The experiment is described as follows: cells. Format: cell-based, human. As to conditions: HEK cells. As for the experimental part:
as §1
as §2, with “slope. Inward current amplitudes were compared to the response to a control pH application (typically pH 6.5) prior to antagonist application or excitation by solutions of different pH to enable calculation of %inhibition or %activation for each cell.” for “slope.”
To quickly confirm a previous publication that HEK cells express endogenous ASIC1a receptor channels and assess the suitability of this cell system for drug discovery screening on APC platforms, we utilized the medium throughput QPatch 48 device. The QPatch uses 48 well microfluidic planar borosilicate chips and coated titanium pipette tips to make whole-cell recordings and sequentially apply small liquid volumes to enable rapid activation followed by slower deactivation (wash-off) of ligand-gated ionotropic responses. HEK cells were voltage-clamped at −60 mV and maintained in external solution at pH 7.4 to avoid steady-state desensitization of ASIC1 receptor channels. Cells were stimulated by external solutions with pH values ranging between 7.0 and 5.5 that evoked rapidly activating inward currents, followed by wash-off in pH 7.4 solution.

For a further experiment, the system named is ASIC1a. More on the design: method as in Nagaeva et al., 2016. As to conditions: ref Nagaeva et al., 2016; cited from earlier work.
For experiment [4], the target named is T1, hASIC1a. Also on record: host or cells: CHO. As to conditions: ref Diochot et al., 2012, cited from earlier work.
The next experiment concerns rat ASIC1a. Also on record: method as in Diochot et al., 2012. As to conditions: ref Diochot et al., 2012, read-out: IC50 potency for the rat ortholog; cited from earlier work.
The next experiment relates to TRPV1 receptor channels. More on the design: method as in Diochot et al., 2012. As to conditions: ref Diochot et al., 2012; cited from earlier work.
Experiment [5] deals with T1, hASIC1a. The experiment is described as follows: QPatch 48 APC, CHO hASIC1a, multi-hole (10 hole X-plate) recordings. Format: cell-based. Also on record: host or cells: CHO (tetracycline-inducible). How it is done: as §1, §2
Before employing a more efficient multi-hole assay it is important to establish that this variant of the APC whole-cell recording format returns the same biophysics and pharmacology as single cell recordings. To this end we ran some of the reference compounds detailed above in 10 hole “X-plate” mode on the QPatch 48.

The Hill slope is a measure of the steepness of the concentration-response curve. As to `CC(C)C1c2cc(C3CC3c3ccc4cc(C(=N)N)ccc4c3)ccc2CCN1C` (centres unmarked) [A-317567], the IC50 in experiment [1] is 2 µM; at hASIC1a [2] (read-out: IC50 potency), 0.66 µM. The same molecule gave a Hill slope at hASIC1a [2] of 0.9.
Consider `N.N.N.N.N.N.N.N.N.N.N.N.N.N.[Cl-].[Cl-].[Cl-].[Cl-].[Cl-].[Cl-].[O-2].[O-2].[Ru+3].[Ru+3].[Ru+4]` [Ruthenium Red], for which the “inhibition of amplitude of currents activated by pH 6.5” value in experiment [3] (1 μM Ruthenium Red) turned out to be 12 ± 7%.
On to `CC12CC3CC(C)(C1)CC(N)(C3)C2` [Memantine], for which the IC50 at hASIC1a [2] (read-out: IC50 potency) is 315 µM. On hASIC1a [2], this molecule showed a Hill slope of 1.1. The “Literature inhibition at 500 μM” value in the experiment on ASIC1a was 31% at 500 μM.
For “LKCYQHGKVVTCHRDMKFCYHNIGMPFRNLKLILQGCSSSCSETENNKCCSTDRCNK (disulfide 3-19, 12-37, 41-49, 50-55) [Mambalgin-3]”, the IC50 on hASIC1a [4] (read-out: Literature IC50) is 0.127 µM; in experiment [3] (pH 6.5 activation, QPatch 48, read-out: cumulative IC50), 0.119 µM; in the experiment on rat ASIC1a, 0.017 to 0.055 µM; at hASIC1a [2] (IC50 potency), 0.16 µM; against hASIC1a [5], 0.16 µM. In addition, the “block of endogenous proton-activated currents” value in experiment [3] (300 nM) was about 75%. For the same molecule, the “potentiation of endogenous pH-evoked responses” value in experiment [3] was “no evidence for such modulation”. This molecule also had a Hill slope on hASIC1a [2] of 1.8. Also, the “inhibition of TRPV1 receptor channels” value in the experiment with TRPV1 receptor channels is listed as “does not inhibit”. Moreover, the “Hill slope (Hn)” value at hASIC1a [5] (multi-hole recordings, QPatch 48) is listed as 1.80.
For “Mambalgin-1 (LKCYQHGKVVTCHRDMKFCYHNTGMPFRNLKLILQGCSSSCSETENNKCCSTDRCNK; ends and bridges not checked; cysteine pairing not given here; UniProt P0DKR6 22-78, looked up) [snake toxin differing from Mambalgin-3 at one non-critical amino acid residue]”, the IC50 in the experiment with hASIC1a [4] (Sun et al., 2018, read-out: quoted values against human ASIC1a channels) is 0.127 µM and 0.197 µM.
Take `NC12CC3CC(CC(C3)C1)C2` [Amantadine]: the IC50 on hASIC1a [2] (read-out: IC50 potency) turned out to be 510 µM. Further, on hASIC1a [2], the Hill slope worked out at 0.9.
